Paper PMC5267425, “Identification of small molecule modulators of HIV-1 Tat and Rev protein accumulation” (Retrovirology, 2017)
Several values for one entry are separate records, joined by “and”; a condition that tells them apart may be missing. Equal values may be shown once.

System: alternative splicing of host transcripts in HeLa rtTA HIV∆Mls cells
Test: RT-PCR of host alternative splicing events (PSI), capillary electrophoresis
Type: cell-based
Parameters: PSI ZNF827_1 / PSI RAN_1 / PSI SEC24B_1 / PSI SMN2_1 / PSI TRIM37_1 / PSI RPS24_1 / PSI PDCL_1 / PSI SMN2_2 / PSI SETD5_1 / PSI RAI14_1 / PSI TPM1_1 / PSI SPAG9_1 / PSI POLDIP3_1 / PSI SRPK2_1 / PSI POMT1_1: concentration or dose not given beside the values
Settings: for DPSI TPM1_1: P Value 0.330
Experimental: To assess the effect of compounds on expression/alternative splicing of cellular RNA, two approaches were used. For both, total RNA was prepared from DMSO or compound-treated cells. In the first assay, samples were assayed by medium throughput RT-PCR to determine the inclusion levels of alternatively spliced exons and splice sites located in 73 selected events. 73 primer sets containing a fluorescently (5-FAM) labeled primer for each, were used in RT-PCR. PCR products generated were denatured in formamide and quantified using ABI Prism capillary sequencer (Life Technologies). The fragment analysis was performed on the PeakScanner software (Life Technologies) in batch mode and automated using custom scripts written in Python. The inclusion level of each exon was calculated as the amount of transcripts carrying the alternative exon relative to the total amount of all transcripts detected in the PCR reaction and results are summarized for compound-treatment in comparison to DMSO treatment. In the second assay, extracted RNA was processed using the Illumina TruSeq RNA Sample Preparation Kit (Illumina) according to the manufacturer’s instructions. The cDNA library generated was validated (passed quality control on a Bioanalyzer 1000 DNA chip (Agilent)), normalized and pooled for cluster generation. cDNA libraries were sequenced on the Illumina HiSeq 2500 (paired-end, 125 bp) with version 4 chemistry following manufacturer’s protocols. The full human genome and transcriptomic sequences were downloaded from the UCSC Genome Browser (genome.ucsc.edu) database and Ensembl (www.ensembl.org), respectively, as described by Irimia et al.. Exon annotations and genomic coordinates for alternative splicing (AS) analysis were derived from tables downloaded from the UCSC Genome Browser database. To determine gene expression (GE) or alternative splicing (AS) changes in an unbiased way, the effective number of unique mappable positions in each transcript (i.e. the effective length) was determined by aligning sequences with unique transcriptomic alignment to the human genome using Bowtie. Reads with one unique genomic alignment were then aligned against the canonical transcriptome and, for each transcript, the number of reads with one unique transcriptomic alignment were counted. The expression level of genes was quantified as corrected ‘reads per kilobase of exon model per million mapped reads’ (cRPKM), a widely used metric to estimate gene expression levels. The expression cutoff was 0.5 cRPKM, corresponding to the transcript of the gene being present if there were ≥10 reads that mapped uniquely to a single genomic locus. Approximately 19,847 Ensembl annotated protein-coding genes were compared to create a gene list of differentially expressed genes. Genes were considered differentially expressed if fold changes in cRPKM was ≥2 in compound-treated versus DMSO-treated samples.

[1] = of 70 AS events, 5193892 vs DMSO, HeLa rtTA-HIV-DMls cells

COc1ccc(C=NNC(=O)c2ccccc2O)cc1O [Compound 892, 2-hydroxy-N′-(3-hydroxy-4-methoxybenzylidene)benzohydrazide]
PSI NUMB_2 (chr14:72815742-72815885, HeLa rtTA-HIV-DMls cells, replicates 25, 26, 27): 26.00
DPSI NUMB_2 (chr14:72815742-72815885, mean PSI 5193892 minus DMSO, n=3, P Value 0.004): 8.67%
PSI NUMB_2 (chr14:72820542-72820835, HeLa rtTA-HIV-DMls cells, replicates 25, 26, 27): 82.00 and 96.00 and 95.00
DPSI NUMB_2 (chr14:72820542-72820835, mean PSI 5193892 minus DMSO, n=3, P Value 0.525): 4.67%
PSI MARK3_1 (chr14:103034592-103034618, HeLa rtTA-HIV-DMls cells, replicates 25, 26, 27): 20.00 and 13.00 and 16.00
DPSI MARK3_1 (chr14:103034592-103034618, mean PSI 5193892 minus DMSO, n=3, P Value 0.734): 1.00%
PSI MARK3_1 (chr14:103036246-103036290, HeLa rtTA-HIV-DMls cells, replicates 25, 26, 27): 11.00 (2×) and 9.00
PSI TPM1_1 (chr15:61140450-61140525, HeLa rtTA-HIV-DMls cells, replicates 25, 26, 27): 84.00 and 73.00 and 67.00
DPSI TPM1_1 (chr15:61140450-61140525, mean PSI 5193892 minus DMSO, n=3): -6.67%
PSI TPM1_1 (chr15:61140965-61141040, HeLa rtTA-HIV-DMls cells, replicates 25, 26, 27): 16.00 and 27.00 and 33.00
DPSI TPM1_1 (chr15:61140965-61141040, mean PSI 5193892 minus DMSO, n=3): 6.67%
PSI CA12_1 (chr15:61406400-61406485, HeLa rtTA-HIV-DMls cells, replicates 25, 26, 27): 96.00 and 100.00 and 95.00
DPSI CA12_1 (chr15:61406400-61406485, mean PSI 5193892 minus DMSO, n=3, P Value 0.851): 0.33%
PSI CA12_1 (chr15:61407349-61407382, HeLa rtTA-HIV-DMls cells, replicates 25, 26, 27): 15.00 and 7.00 and 4.00
PSI MRIP_1 (chr17:17024646-17024708, HeLa rtTA-HIV-DMls cells, replicates 25, 26, 27): 32.00 and 31.00 (2×)
DPSI MRIP_1 (chr17:17024646-17024708, mean PSI 5193892 minus DMSO, n=3, P Value 0.101): 1.00%
PSI ATP6V0A1_1 (chr17:37919833-37920004, HeLa rtTA-HIV-DMls cells, replicates 25, 26, 27): 81.00 and 86.00 and 77.00
DPSI ATP6V0A1_1 (chr17:37919833-37920004, mean PSI 5193892 minus DMSO, n=3, P Value 0.331): 3.33%
PSI SPAG9_1 (chr17:46408223-46408261, HeLa rtTA-HIV-DMls cells, replicates 25, 26, 27): 25.00 and 17.00 and 16.00
PSI TRIM37_1 (chr17:54433741-54433857, HeLa rtTA-HIV-DMls cells, replicates 25, 26, 27): 69.00 and 71.00 and 68.00
DPSI TRIM37_1 (chr17:54433741-54433857, mean PSI 5193892 minus DMSO, n=3, P Value 0.063): -4.33%
PSI FAM104A_1 (chr17:68720412-68720474, HeLa rtTA-HIV-DMls cells, replicates 25, 26, 27): 15.00 and 20.00 and 18.00
DPSI FAM104A_1 (chr17:68720412-68720474, mean PSI 5193892 minus DMSO, n=3, P Value 0.523): -2.33%
PSI EXOC7_1 (chr17:71598005-71598035, HeLa rtTA-HIV-DMls cells, replicates 25, 26, 27): 35.00 and 23.00 and 25.00
DPSI EXOC7_1 (chr17:71598005-71598035, mean PSI 5193892 minus DMSO, n=3, P Value 0.709): 2.67%
PSI EXOC7_1 (chr17:71598819-71598911, HeLa rtTA-HIV-DMls cells, replicates 25, 26, 27): 27.00
DPSI EXOC7_1 (chr17:71598819-71598911, mean PSI 5193892 minus DMSO, n=3, P Value 0.003): 5.67%
PSI MBD1_1 (chr18:46054554-46054721, HeLa rtTA-HIV-DMls cells, replicates 25, 26, 27): 28.00 and 15.00 and 9.00
PSI APP_1 (chr21:26291546-26291602, HeLa rtTA-HIV-DMls cells, replicates 25, 26, 27): 30.00 and 32.00 and 34.00
DPSI APP_1 (chr21:26291546-26291602, mean PSI 5193892 minus DMSO, n=3, P Value 0.279): 1.67%
PSI APP_1 (chr21:26294201-26294368, HeLa rtTA-HIV-DMls cells, replicates 25, 26, 27): 71.00 and 77.00 and 81.00
PSI POLDIP3_1 (chr22:41327919-41328006, HeLa rtTA-HIV-DMls cells, replicates 25, 26, 27): 68.00 and 67.00 and 64.00
DPSI POLDIP3_1 (chr22:41327919-41328006, mean PSI 5193892 minus DMSO, n=3, P Value 0.421): 2.33%
AS events with DPSI ≤ -10% [1]: 7
AS events with DPSI ≥ 10% [1]: 2
AS events with P ≤ 0.05 [1]: 18
